In brackets after ≈: the same amount, converted by molar mass. Ends that are not written are not given here.
Columns and labels:
[1] = test system: melanin-induced ARPE-19 cells; experiment: Cell-penetration (cell uptake) assay, melanin-induced ARPE-19; format: cell-based, human; conditions: C-terminal biotinylated peptide 100 µM in pH 6.5 PBS, 6 h, 37 °C, 5 PBS washes, RIPA lysis, fluorescence biotin quantitation, n = 3
Protocol: Three 96 well plates per ARPE19 cell type group (melanin-induced or non-melanin induced) were seeded at 0.01 × 10^6 cells/well. ARPE-19 cells were either cultured with DMEM:F12 medium containing 10% FBS according to protocol provided by the vendor (non-melanin induced) or cultured in DMEM high glucose, pyruvate media with 250 µM of ferric ammonium citrate[107] for 2 months (melanin-induced)[20]. The expression of melanin was confirmed visually with bright field microscopy and by measuring absorbance at 475 nm (>0.4 arb. units)[20]. Within each plate, 12 wells were randomly selected to quantify the cell numbers with an automated cell counter (Countess 3 Automated Cell Counter, Thermo Fisher) for normalization in the cell uptake study. […] To quantify cell-associated peptides, the cells were lysed with 100 µL of RIPA lysis buffer at 4 °C for 48 h. The concentration of intracellular biotinylated peptides was analyzed with the Pierce™ Fluorescence Biotin Quantitation Kit. The mean intracellular concentration values of the three replicates were then grouped by cell types (melanin-induced or non-melanin induced), and a two-tailed Mann–Whitney U (Wilcoxon rank-sum) test was calculated using the wilcox.test function in R. The intracellular concentration values were also plotted against experimental melanin binding. […]

[2] = test system: melanin nanoparticles (mNPs); experiment: Melanin binding assay for machine learning model validation (RED device, biotin quantitation); parameters: species or system Sepia officinalis; conditions: C-terminal biotinylated peptide 10 µM with mNPs, pH 6.5 PBS, RED 8K device, 24 h, 900 rpm; unbound peptide by fluorescence biotin quantitation; n = 4
Protocol: The mNPs were mixed with C-terminal biotinylated peptides (10 µM) in pH 6.5 PBS solution and incubated in the rapid equilibrium dialysis (RED) 8 K device for 24 h on an orbital shaker at 900 rpm. A total of 10 µL of the solution from the rapid dialysis reservoir was collected. The concentration of unbound biotinylated peptides was analyzed with the Pierce™ Fluorescence Biotin Quantitation Kit. Four sets of melanin binding assays were performed. Melanin binding was calculated as the difference in free peptide normalized with the starting peptide concentration. Experimental melanin binding values of the 127 peptide candidates were compared with the predicted melanin binding values with the Pearson correlation. Melanin binding predictions larger than 100% were cast to 100% because this was the maximum value in the melanin binding training set.

[3] = test system: intraocular pressure; experiment: IOP measurement in normotensive Dutch Belted rabbits; format: in vivo; conditions: for cumulative IOP change: Brimonidine group
Protocol: (§1) For the IOP measurements in normotensive rabbits, Dutch Belted rabbits (2–3 kg) were used (n = 5). IOP was measured with a hand-held rebound tonometer icareTONOVET (Vantaa, Finland) in the awake and gently restrained rabbit. Each rabbit was acclimatized to the IOP measurement procedure for at least 5 days to obtain a stable background IOP reading. A mean of three IOP measurements for an individual eye were taken every other day for 6 days (3 times in total) and used as a baseline value. For the ICM injection procedure, rabbits were anesthetized with ketamine/xylazine and received topical anesthesia with 0.5% proparacaine hydrochloride. A corneal pre-puncture was performed with a 30 G needle, followed with a single bolus ICM injection of 200 µg (mass of brimonidine) of HR97-brimonidine or brimonidine tartrate solution in 100 µL saline using a 28 G needle. After the procedure, topical bacitracin-neomycin-polymyxin ophthalmic ointment was applied to both eyes to prevent infection and dry eyes. On day 7, an ophthalmologist masked to treatment evaluate the HR97-brimonidine injected eyes with the following items: functionality of lids, lashes, conjunctiva, cornea transparency, pigmentation of corneal endothelium, depth of anterior chambers, inflammation, fibrin strands, and symmetry of the lens[113]. […] In a separate study, a corneal pre-puncture was performed with a 30 G needle, followed with a single bolus ICM injection of 200 µg (mass of brimonidine) containing a physical mixture of unconjugated HR97 and brimonidine tartrate (HR97 + brimonidine), the equivalent amount of HR97 peptide alone, or saline alone in 100 µL saline. On day 7, day 14, day 21, and day 28, an ophthalmologist masked to treatment performed the same safety evaluations described above. IOP was measured on days 2, 3, 4, 5, 6, 7, 8, 10, 12, 14, 16, 18, and 20 after the ICM injection, and change in IOP from the baseline (ΔIOP) was reported. The mean of three IOP measurements was taken for each eye by one observer, and then confirmed by a masked observer. Alternatively, a single topical eye drop (Alphagan® P 0.1%, 50 µL) was given (n = 5). The IOP were measured immediately before the topical dosing (0 h), and at 2, 4, 6 and 8 h after the eyedrop administration. For the pharmacokinetics studies, rabbits (n = 4 per group) received a single ICM injection with 200 µg (mass of brimonidine) HR97-brimonidine as described above. Rabbits were sacrificed 1, 7, 14, 28 days after the injection, and iris, aqueous, and retina were collected for measuring the brimonidine concentration.

[4] = ref 3 of the peer review file, Acheampong et al. 2002; cited from earlier work
Excerpt: 1.5 Brimonidine is applied as eye drops three times per day. […] Why is that? What is the required free brimonidine concentration for activity?

[5] = Brimonidine in ocular tissues after ICM injection (LC-MS/MS)
Protocol: as §1
Brimonidine concentrations in ocular tissues were measured by liquid chromatography-tandem mass spectrometry (LC-MS/MS) as previously described. All samples were collected in pre-weighed tubes and stored at −80 °C until processing for analysis. Tissue samples were homogenized in 100–600 μL 1 × PBS using a Bullet Blender® (Next Advance, Inc, Troy, NY, USA) before extraction. Brimonidine were extracted from 15 to 50 μL of tissue homogenates with 50 μL of acetonitrile containing 50/50/2.5 ng/mL of the internal standards. The top layer was then transferred to an autosampler vial for LC-MS/MS analysis after centrifugation. All ocular tissue samples were analyzed using a 1 × PBS standard curve for brimonidine. […] The column effluent was monitored using a 5500 mass-spectrometric detector (Sciex) using electrospray ionization operating in positive mode. The mobile phase A was water containing 0.1% formic acid and mobile phase B was acetonitrile containing 0.1% formic acid. The gradient started with mobile phase B held at 20% for 0.5 min and increased to 100% over 0.5 min; 100% mobile phase B was held for 1 min and then returned to 20% mobile phase B and allowed to equilibrate for 1 min.

[6] = test system: melanin nanoparticles (mNPs); experiment: In vitro melanin binding assay (binding capacity and Kd, RED device, HPLC); parameters: species or system Sepia officinalis; conditions: binding capacity and dissociation constant of ocular drugs, melanin
Protocol: The solutions (400 µL) were then mixed thoroughly with 400 µL of 1 mg/mL mNPs in pH 6.5 PBS solution and transferred to the inner reservoir of the rapid equilibrium dialysis (RED) device inserts (8 K MWCO). The outer reservoir was filled with 800 µL of pH 6.5 PBS solution. The samples were incubated on an orbital shaker with temperature control at 37 °C and 300 rpm for 48 h (n = 3). The solutions from outer reservoir (free drug) were than collected and transferred to an autosampler vial for HPLC analysis (Prominence LC2030, Shimadzu, Columbia, MD) with photodiode-array detection (PDA) system. […] The amount of bound drug was used to calculate the binding capacity (mol drug/mg melanin) and the dissociation constant (Kd) as previously described[20],[34].

[7] = test system: biotinylated melanin nanoparticles (b-mNPs); experiment: Relative binding of drugs to b-mNPs; parameters: species or system Sepia officinalis
Excerpt: (§2) Supplementary Fig. 1 | Characterization of melanin nanoparticles (mNPs) and biotinylated-melanin
(§3) nanoparticles (b-mNPs). a Representative transmission electron microscopes (TEM) images of mNPs and b-
(§4) (black dots, n = 3 per drug group) and b-mNPs (gray squares, n = 3 per drug group). Data are shown as mean ±
(§5) (1 picture or pasted object on this page, not shown here)

[8] = test system: melanin nanoparticles (mNPs); experiment: Relative binding of drugs to mNPs; parameters: species or system Sepia officinalis
Excerpt: as §2, §3, §4, §5

[9] = test system: ARPE-19 cells; experiment: Cell viability assay of HR97 peptide (PrestoBlue HS); format: cell-based, human; conditions: concentrations up to 5 mg/mL, 12 h incubation, n = 5
Protocol: The PrestoBlue^TM HS cell viability system was used to assess cell viability. ARPE-19 cells were seeded at 0.01 × 10^6 cells/well in 96 well plates and cultured with DMEM:F12 medium containing 10% FBS according to the vendor protocol. After 7 days, 90 µL of DMEM/F12 containing 0, 1, 5, 10, or 20 mg/mL of the HR97 was added. The cells (n = 5) were then incubated for 12 h, and viability was measured by adding 10 µL of PrestoBlue^TM HS cell viability reagents at 37 °C. After 0.5, 1, 2, 3, 4 and 5 h, absorbance (570 nm and 600 nm) was measured at 37 °C and normalized according to the protocol provided by the vendor.

[10] = test system: human cathepsins B, K, L, and S; experiment: in vitro; conditions: isolated enzyme cathepsin other, pH 5.5, cathepsin cleavage assay
[11] = Ocular safety evaluation / ocular grading after ICM injection; conditions: rabbit, in vivo
Protocol: as §1

YGRKKRRQRRR [TAT47–57]
cell uptake (intracellular peptide concentration) [1]: 457.1 ± 34.2 pmol/100 K cells
melanin binding (bound fraction) [2]: 77.6 ± 1.5%

Brc1c(NC2=NCCN2)ccc2nccnc12 [brimonidine]
cumulative IOP change ([3]; rabbit 1, sex printed Female): 3.583
cumulative IOP change ([3]; rabbit 2, sex printed Male): -9.917
cumulative IOP change ([3]; rabbit 3, sex printed Female): 9.167
cumulative IOP change ([3]; rabbit 4, sex printed Male): 13.75
cumulative IOP change ([3]; rabbit 5, sex printed Female): 2.667
peak ΔIOP at 2 days ([3]; single ICM injection, 200 µg brimonidine equivalent, n = 5): −2.6 ± 1.65 mmHg
time for the mean ΔIOP to return to baseline ([3]; single ICM injection, n = 5 per group): 8 days
EC50 in the aqueous humor [4]: 2.9 ng/mL (≈ 9.93 nM)
brimonidine levels in eye tissues, Iris ([5]; 1 days, sample 1 (Male)): 11376.8
brimonidine levels in eye tissues, Iris ([5]; 1 days, sample 2 (Male)): 47581.5
brimonidine levels in eye tissues, Iris ([5]; 1 days, sample 3 (Female)): 23310.4
brimonidine levels in eye tissues, Iris ([5]; 7 days, sample 1 (Female)): 2210.2
brimonidine levels in eye tissues, Iris ([5]; 7 days, sample 2 (Female)): 5336.3
brimonidine levels in eye tissues, Iris ([5]; 7 days, sample 3 (Male)): 10576.6
brimonidine levels in eye tissues, Iris ([5]; 7 days, sample 4 (Male)): 7554.5
brimonidine levels in eye tissues, Iris ([5]; 14 days, sample 1 (Female)): 3473.6
brimonidine levels in eye tissues, Iris ([5]; 14 days, sample 2 (Female)): 5226.5
brimonidine levels in eye tissues, Iris ([5]; 14 days, sample 3 (Male)): 4493.7
brimonidine levels in eye tissues, Iris ([5]; 14 days, sample 4 (Male)): 711.1
brimonidine levels in eye tissues, Iris ([5]; 28 days, sample 1 (Male)): 1400.2
brimonidine levels in eye tissues, Iris ([5]; 28 days, sample 2 (Male)): 859.9
brimonidine levels in eye tissues, Iris ([5]; 28 days, sample 3 (Female)): 1137.6
brimonidine levels in eye tissues, Iris ([5]; 28 days, sample 4 (Female)): 522.1
brimonidine levels in eye tissues, Retina ([5]; 1 days, sample 1 (Male)): 23.3
brimonidine levels in eye tissues, Retina ([5]; 1 days, sample 2 (Male)): 64.6
brimonidine levels in eye tissues, Retina ([5]; 1 days, sample 3 (Female)): 636.9
brimonidine levels in eye tissues, Retina ([5]; 1 days, sample 4 (Female)): 1138.2
brimonidine levels in eye tissues, Retina ([5]; 7 days, sample 1 (Female)): 14.2
brimonidine levels in eye tissues, Retina ([5]; 7 days, sample 2 (Female)): 4.9
brimonidine levels in eye tissues, Retina ([5]; 7 days, sample 3 (Male)): 125.6
brimonidine levels in eye tissues, Retina ([5]; 7 days, sample 4 (Male)): 19.8
brimonidine levels in eye tissues, Retina ([5]; 14 days, sample 1 (Female)): 33.2
brimonidine levels in eye tissues, Retina ([5]; 14 days, sample 2 (Female)): 7.4
brimonidine levels in eye tissues, Retina ([5]; 14 days, sample 3 (Male)): 43
brimonidine levels in eye tissues, Retina ([5]; 14 days, sample 4 (Male)): 14.8
brimonidine levels in eye tissues, Retina ([5]; 28 days, sample 1 (Male)): 10.7
brimonidine levels in eye tissues, Retina ([5]; 28 days, sample 2 (Male)): 7.9
brimonidine levels in eye tissues, Retina ([5]; 28 days, sample 3 (Female)): 8.6
brimonidine levels in eye tissues, Retina ([5]; 28 days, sample 4 (Female)): 5.8
Binding Capacity (mole/mg melanin) [6]: 5e-8 mole/mg melanin
Kd [6]: 5.27 µM
Relative binding of drugs to b-mNPs ([7]; replicate 1 of n = 3): 84.2618
Relative binding of drugs to b-mNPs ([7]; replicate 2 of n = 3): 102.105
Relative binding of drugs to b-mNPs ([7]; replicate 3 of n = 3): 167.093
Relative binding of drugs to mNPs ([8]; replicate 1 of n = 3): 141.911
Relative binding of drugs to mNPs ([8]; replicate 2 of n = 3): 83.4707
Relative binding of drugs to mNPs ([8]; replicate 3 of n = 3): 74.618

FSGKRRKRKPR [HR97]
cytotoxicity in ARPE-19 cells [9]: no sign of cytotoxicity
remaining at 48 h, 100 µM [10]: 87.7%
Ocular grading, all 17 items (pupillary light reflex to Meibomian gland function) [11]: All values are zero
Ocular grading, all other scores of the 17 items [11]: 0
Ocular grading: Fluorescein staining (area) [11]: 1
Ocular grading: Fluorescein staining (severity) [11]: 1
ocular toxicity, ophthalmologist evaluation [11]: no ocular toxicity was observed

— article PMC10154330, “Machine learning-driven multifunctional peptide engineering for sustained ocular drug delivery” (Nature Communications, 2023)
